We go through three molecules from publication PMC7764601 (Molecules, 2020).

Series [1] concerns mice. Briefly: Thiopental anesthesia (thiopental-induced sleep). The class given is in vivo. As to conditions: for Prolongation (%) of thiopental anesthesia / Duration of Anesthesia ± SEM: i.p.; for Duration of Anesthesia ± SEM: thiopental. The source says: The pilot biological studies for imides 9 and 11 were supplemented with the determination of the effect of the intraperitoneal administration of the test compounds on the duration of thiopental-induced sleep. The mechanism and the degree of crossing the blood–brain barrier has not been precisely defined. The observed sedative effects may indicate good penetration of compounds into the central nervous system, which, however, has not been confirmed.
(§1) Control and experimental groups consisted of 6–8 animals each. The investigated compounds were administered intraperitoneally as a suspension in 0.5% methylcellulose in a constant volume of 10 mL/kg.

The test system of series [2] is mice. Briefly: “Writhing” test in mice (phenylbenzoquinone). The format is in vivo. As to the method:
(§2) The experiments were carried out on male albino Swiss mice (body weight 18–26 g). All of the animals were housed at constant humidity (60%) and temperature (25 °C) and kept on a 12 h light/dark cycle. Animals were fed a standard pellet diet with free access to tap water. All procedures were conducted according to Animal Care and Use Committee guidelines, and approved by the Ethical Committee of Jagiellonian University, Kraków.
as §1
(§3) The statistical significance was calculated using a Student’s t-test. The ED50 values and their confidence limits were calculated according to the method of Litchfield and Wilcoxon.
(§4) Pain reactivity was measured in two tests: “hot plate” test (according to the method of Eddy and Leimbach) and “writhing” test in mice (according to Hendershot and Forsaith).
Then, after 25 min, the irritant (phenylbenzoquinone, 0.02% solution, ethanol-water, 5:95) was also administered intraperitoneally in a constant volume of 0.25 mL. Five min after the application of the irritant,a 10 min long period of observation started, in which the number of writhing episodes was counted.
The analgesic effect of individual doses was expressed in percent:(1) % Analgesic effect=100−∑ of writing incidents in experimental group/∑ of writhing incidents in control group×100
(In general: An intraperitoneal irritant provokes the stretching counted in writhing tests.)

Series [3] deals with mice. Briefly: in vivo. The format is in vivo. As to conditions: ED50 of the writhing test (Table 3) relative to LD50 i.p. As for the experimental part: as §2, §1
A further series is described as follows: in vivo. The class given is in vivo. As to conditions: male, albino Swiss, mouse, in vivo, ip; mice, intraperitoneal, mortality after 24 h; confidence limits in parentheses. As to the method: as §2, §1
Series [4] relates to mice. Briefly: Spontaneous locomotor activity in mice (photoresistor actometers). As to conditions: for Number of impulses ± SEM (30min): i.p. The class given is in vivo. As to the method:
as §2, §1
Spontaneous locomotor activity in mice was measured in circular photoresistoractometers (32 cm in diameter). […] Thirty minutes after the injection of the investigated compounds, mice were placed in the actometers for 30 min. Each crossing of the light beam was recorded automatically. The amount of impulses was noted after 30 min.

In series [5] the test system is mice. Briefly: “Hot plate” test in mice. The format is in vivo. As to conditions: hot plate, mice. As to the method:
as §2, §1, §3, §4
Animals were placed individually on the metal plate, heated to 55 ± 1 °C. The latency time (s) to the pain reaction (licking of the hind paws or jumping) was recorded by a stop-watch. A cutoff time of 45 s was used to prevent tissue damage.

Series [6] deals with mice. The arrangement: method as in PMID 11234340, PMID 12484538, PMID 15652370. As to conditions: series 1, cited from earlier work.
For series [7], the system named is mice. More on the design: method as in PMID 11234340, PMID 12484538, PMID 15652370. As to conditions: cited from earlier work; for % Inh. of locomotor activity: series 1; for ED50, influence on the locomotor activity: imides described previously (series 1).
For series [8], the target named is T1, µ receptor of the rat cerebral cortex (Rattus norvegicus, UniProt P33535).
T1 construct: from tissue; host or cells: rat cerebral cortex
T1 sequence (P33535 whole entry): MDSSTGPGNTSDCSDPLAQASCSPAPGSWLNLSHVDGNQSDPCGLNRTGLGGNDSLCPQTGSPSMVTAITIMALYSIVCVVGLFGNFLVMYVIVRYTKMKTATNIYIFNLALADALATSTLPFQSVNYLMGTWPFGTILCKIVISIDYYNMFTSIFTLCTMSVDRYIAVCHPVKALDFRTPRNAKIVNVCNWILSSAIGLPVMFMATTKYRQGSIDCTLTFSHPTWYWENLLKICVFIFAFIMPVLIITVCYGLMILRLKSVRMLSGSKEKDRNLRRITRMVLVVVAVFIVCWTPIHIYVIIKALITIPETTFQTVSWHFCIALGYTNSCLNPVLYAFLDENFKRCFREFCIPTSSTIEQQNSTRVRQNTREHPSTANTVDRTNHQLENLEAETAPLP
Nature of the series: Displacement of [3H-DHM] from µ receptor binding sites of rat cerebral cortex. As to conditions: read-out: Dihydromorphine [3H-DHM] Ki. (In general: In a radioligand displacement assay an active substance lowers the binding of a labelled ligand.)

Series [9] has as its system mice. As to conditions: compounds obtained previously (series 1 and 2); cited from earlier work.

“And” between values parts separate entries of the source, which are not always exact repeats. Equal values may be shown once. Read-outs that look alike come from different tables or passages of the source. Marks after values point to notes of the source that are not given here.

As a reminder, the LD50 is the dose at which mortality reaches 50%. One may read the Ki as the equilibrium dissociation constant of an inhibitor or competing ligand from its target.

With `COc1nc(C)cc2c1C(=O)N(CCN1CCN(c3ccccc3)CC1)C2=O` [Compound 9], the “Prolongation (%) of thiopental anesthesia” value was 34.8% in the series with mice [1] (dose 9.375 mg/kg); 96.5 * % and 96.5% in the series with mice [1] (dose 18.75 mg/kg); 157.1 ** % and 157.1% in the series with mice [1] (dose 37.5 mg/kg). In addition, the “effect on duration of thiopental anesthesia (in words)” value in the series with mice [1] (mouse, in vivo) is reported as “extended the duration of thiopental anesthesia”. In addition, the “Duration of Anesthesia ± SEM” value is 69.4 ± 12 min in the series with mice [1] (dose 9.375 mg/kg), 101.2 ± 28.4 min in the series with mice [1] (dose 18.75 mg/kg) and 132.4 ± 27.8 min in the series on mice [1] (dose 37.5 mg/kg). Besides, the ED50 was determined as 3.25 mg/kg in the series with mice [2] (Mus musculus, ip, confidence limits in parentheses, read-out: ED50 (mg/kg) ± SEM, writhing test) and 18.8 mg/kg in the series with mice [4] (Mus musculus, ip, confidence limits in parentheses, read-out: ED50 (mg/kg) ± SEM, spontaneous locomotor activity). Besides, the “ED50 (mg/kg) ± SEM, writhing test” value with mice [2] (i.p., confidence limits in parentheses) came out at 3.67 mg/kg. Moreover, the “Mean no. of writhing ± SEM” value in the series on mice [2] (i.p., dose 4.68 mg/kg) came out at 22.0 ± 4.6; in the series with mice [2] (i.p., dose 9.375 mg/kg) it was 9.8 ± 1.8; with mice [2] (i.p., dose 18.75 mg/kg), 5.0 ± 2.0; in the series with mice [2] (i.p., dose 37.5 mg/kg), 1.2 ± 0.7. Further, the “analgesic ED50 as fraction of LD50” value in the series on mice [3] is “≈ 1/408”. Besides, the LD50 at 24 h in the series “in vivo” came to 1500 mg/kg. The inhibition at 4.68 mg/kg in the series on mice [4] (Mus musculus, ip, dose 4.68 mg/kg, read-out: Degree of motor inhibition (%)) was found to be 22.6%. Further, the inhibition at 9.37 mg/kg with mice [4] (Mus musculus, ip, dose 9.37 mg/kg (Table 9), read-out: % Inh. of locomotor activity) turned out to be 42.8%. For the same molecule, the inhibition at 18.75 mg/kg in the series on mice [4] (Mus musculus, ip, dose 18.75 mg/kg, read-out: Degree of motor inhibition (%)) turned out to be 45.9%. For the same molecule, in the series on mice [4] (Mus musculus, ip, dose 37.5 mg/kg, read-out: Degree of motor inhibition (%)), the inhibition at 37.5 mg/kg was determined as 67.2%. Further, the results for the “Number of impulses ± SEM (30min)” value in the series with mice [4] (dose 18.75 mg/kg), with mice [4] (dose 37.5 mg/kg) and in the series with mice [4] (dose 93.75 mg/kg (as printed in Table S2)) were 244 ± 45, 148 ± 32 and 258 ± 47.4, respectively. Besides, the change in vivo at 75 mg/kg in the series with mice [5] (Mus musculus, ip, 0.5 h, dose 75 mg/kg, read-out: Prolonged Time (%)) was found to be 55%. Moreover, the change in vivo at 150 mg/kg with mice [5] (Mus musculus, ip, 0.5 h, dose 150 mg/kg, read-out: Prolonged Time (%)) worked out at 102%. In addition, the change in vivo at 300 mg/kg with mice [5] (Mus musculus, ip, 0.5 h, dose 300 mg/kg, read-out: Prolonged Time (%)) is 105%. Moreover, the “Time of Reaction to Pain Stimulus (s) ± SEM” value was 30.3 ± 2.7 s with mice [5] (dose 75 mg/kg), 39.2 ± 5 s with mice [5] (dose 150 mg/kg) and 40.0 ± 4.4 s in the series on mice [5] (dose 300 mg/kg).
Turning to `COc1ccccc1N1CCN(CCCN2C(=O)c3cc(C)nc(OC)c3C2=O)CC1` [Compound 1I], the results for the “Thiopental Anesthesia % Prolong.” value with mice [6] (dose 12.5 mg/kg), in the series with mice [6] (dose 25 mg/kg) and in the series on mice [6] (dose 50 mg/kg) were 123.3%, 140.3% and 207.2%, respectively. The “% Inh. of locomotor activity” value is given as 53.91% in the series with mice [7] (dose 12.5 mg/kg), 72.77% in the series with mice [7] (dose 25 mg/kg) and 76.69% in the series with mice [7] (dose 50 mg/kg). The “ED50, influence on the locomotor activity” value with mice [7] was 11.8 mg/kg. Also, the Ki in [8] worked out at 30.8 ± 47.8 µM. In the series with mice [9], the “ED50, writhing test” value was 0.67 mg/kg.
`COc1nc(C)cc2c1C(=O)N(CN1CCc3ccccc3C1)C2=O` [Compound 1M]: the results for the “Thiopental Anesthesia % Prolong.” value in the series on mice [6] (dose 25 mg/kg) and in the series on mice [6] (dose 50 mg/kg) were 146.6% and 195.1%, respectively. For the same molecule, the “% Inh. of locomotor activity” value with mice [7] (dose 25 mg/kg) is on record as 47.25%; in the series on mice [7] (dose 50 mg/kg), 59.21%. Besides, in the series with mice [7], the “ED50, influence on the locomotor activity” value was 29.5 mg/kg. Besides, the inhibitory constant (Ki) in series [8] worked out at 13.8 ± 12.2 µM. In addition, the “ED50, writhing test” value in the series on mice [9] was 12.7 mg/kg.
